Laboratory results as given in patent US10369138B2, “Monobactam organic compounds for the treatment of bacterial infections” (Novartis AG, priority 2014, dated 2019).
In brackets after ≈: the same amount, converted by molar mass.

Key:
Assay type in all cases: cell-based
[1] = system: E. coli NB27273-CDY0026 (parent); experiment: MIC by broth microdilution, isogenic E. coli parent strain; settings: Escherichia coli, read-out: Strain 1 MIC
Procedure: (§1) Bacterial isolates were cultivated from −70° C. frozen stocks by two consecutive overnight passages at 35° C. in ambient air on 5% blood agar (Remel, Lenexa, Kans.). Quality control and P. aeruginosa ATCC 27853) is from the American Type Culture Collection (ATCC; Rockville, Md.) and PAO1 was received from Dr. K. Poole.
(§2) Strain NB27273 (BW25113 pspB::Km^r) was obtained from the Keio transposon insertion collection. The strain has the pspB gene replaced by a kanamycin resistance marker (BW25113 pspB::Km^r). This strain was cured of the transposon in pspB via FLP recombinase using published methodology. The resulting strain, BW25113 pspB, was used as a host for multicopy vectors expressing key β-lactamases. Multicopy plasmids directing constitutive expression of β-lactamases were established as follows: Synthetic, codon optimized genes encoding E. coli KPC2 and SHV12 β-lactamases were made by DNA2.0 (Palo Alto, Calif.). Each of the synthetic fragments were designed to contain NotI and NcoI restriction sites at their termini, allowing ligation into a NotI/NcoI digested pET28a(+) derivative for protein expression. […] The codon optimized nucleotide sequences and relevant primer recognition information is shown below:
(§3) The PCR products were then digested with XhoI and EcoRI and ligated into similarly digested plasmid pAH63-pstS(BlaP). Plasmid pAH63-pstS(BlaP) is a derivative of plasmid pAH63 (J Bacteriol: 183(21): 6384-6393) made by cloning the TEM-1 (bla) promoter and signal peptide encoding region from plasmid pBAD (J Bacteriol. 1995 July 177(14):4121-30) into plasmid pAH63. This fragment was PCR amplified from pBAD using primer pair E192 (ttcaCTGCAGtgaacgttgcgaagcaacggC) (SEQ ID NO:13) and E194 (TCGAggatcctcgagagcaaaaacaggaaggcaaaatgccg) (SEQ ID NO:14), digested with PstI and BamHI and inserted into similarly digested plasmid pAH63. Therefore, expression of β-lactamases from pAH63-pstS(BlaP) based constructs is constitutive and the signal sequence is provided to direct these proteins to the periplasm. […] To accomplish this, the inserts encompassing the β-lactamase genes, with the associated TEM promoter and signal sequences, were PCR amplified from their corresponding vectors using primer E269 (ccgTCTAGAcggatggcctttttgcgtttc) (SEQ ID NO:15) and E202 (aatcGAATTCttactgaccattaacgcccaagc) (SEQ ID NO:16) for the KPC2 construct and E204 (aatcGAATTCttaacgctgccagtgctcaatc) (SEQ ID NO:17) for the SHV12 construct. These fragments were then digested with XbaI and EcoRI, and each was inserted into pBAD18-kan that had been digested with the same enzymes to generate a pair of multicopy vectors expressing KPC2 and SHV12 respectively. These vectors were transformed into BW25113 pspB to generate strains NB27273-CDY0033 (expressing KPC2) and NB27273-CDY0030 (expressing SHV12). The pBAD18-kan vector also contains the TEM promoter region and signal sequence, (but lacks any intact β-lactamase genes) and was transformed into BW25113 pspB using standard protocols to generate the control strain NB27273-CDY0026. […] Susceptibility Testing
(§4) Minimal Inhibitory Concentrations (MICs) were determined by the broth microdilution method in accordance with Clinical and Laboratories Institute (CLSI) guidelines. In brief, fresh overnight bacterial cultures were suspended in sterile saline, and adjusted to a 0.5 McFarland turbidity standard. Bacterial suspensions were then diluted in cation adjusted Mueller-Hinton Broth (MHB II; BBL) to yield a final inoculum of approximately 5×10^5 colony-forming units (CFU)/mL. A master plate of antibiotics was prepared at a concentration equivalent to hundred-fold the highest desired final concentration in 100% dimethyl sulfoxide (DMSO). The master antibiotic plate was then diluted by serial twofold dilution with a multichannel pipette. The resulting dilution series of compounds were diluted 1:10 with sterile water leading to a 10% DMSO final concentration.

[2] = system: E. coli NB27273-CDY0033 (KPC2); experiment: MIC by broth microdilution, isogenic E. coli strain expressing KPC2; settings: Escherichia coli, read-out: Strain 2 MIC
Procedure: as §1, §2, §3, §4

[3] = system: E. coli NB27273-CDY0030 (SHV12); experiment: MIC by broth microdilution, isogenic E. coli strain expressing SHV12; settings: Escherichia coli, read-out: Strain 3 MIC
Procedure: as §1, §2, §3, §4

[4] = system: E. coli strain 25922; experiment: MIC by broth microdilution, E. coli strain 25922; settings: Escherichia coli, 25922, E. coli strain 25922; read-out: Ec 25922 (MIC)
Method in brief: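 CLSI broth microdilution in cation-adjusted Mueller-Hinton broth, inoculum about 5×10^5 CFU/mL, 10% DMSO from the diluted series, 20 h at 35-37° C. MIC is the lowest concentration preventing visible growth, read by eye and at 600 nm.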

[5] = system: E. coli containing KPC-2; experiment: MIC by broth microdilution, E. coli containing KPC-2 (Ec KPC2 Iso); settings: Escherichia coli, read-out: Ec KPC2 Iso (MIC), E. coli containing KPC-2 (carbapenemase from Klebsiella pneumoniae)
Method in brief: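 Host E. coli BW25113 pspB carrying multicopy pBAD18-kan plasmid with constitutive TEM-promoter KPC-2 expression (periplasmic signal sequence); broth microdilution per CLSI in cation-adjusted Mueller-Hinton broth, inoculum ~5×10^5 CFU/mL, compounds twofold serially diluted from DMSO masters (10% DMSO in dilution series added).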

| Structure (SMILES) | MIC [1] [µg/mL] | MIC [2] [µg/mL] | MIC [3] [µg/mL] | MIC [4] [µg/mL] | MIC [5] [µg/mL] |
| --- | --- | --- | --- | --- | --- |
| CC(C)(O/N=C(\C(=O)N[C@@H]1C(=O)N(S(=O)(=O)O)[C@@H]1CN1CCCC1=O)c1csc(N)n1)C(=O)O [Example 1, 2-(((Z)-(1-(2-aminothiazol-4-yl)-2-oxo-2-(((3S,4R)-2-oxo-4-((2-oxopyrrolidin-1-yl)methyl)-1-sulfoazetidin-3-yl)amino)ethylidene)amino)oxy)-2-methylpropanoic acid] | 1 (≈ 1.93 µM) | 2 (≈ 3.86 µM) | 2 (≈ 3.86 µM) | 16 (≈ 30.9 µM) | 2 (≈ 3.86 µM) |
| CC(C)(O/N=C(\C(=O)N[C@@H]1C(=O)N(S(=O)(=O)O)[C@@H]1Cn1nnc(CN)n1)c1csc(N)n1)C(=O)O [Example 4, 2-(((Z)-(2-(((2R,3S)-2-((5-(aminomethyl)-2H-tetrazol-2-yl)methyl)-4-oxo-1-sulfoazetidin-3-yl)amino)-1-(2-aminothiazol-4-yl)-2-oxoethylidene)amino)oxy)-2-methylpropanoic acid] | 0.5 (≈ 0.939 µM) | 8 (≈ 15 µM) | 2 (≈ 3.76 µM) | 1 (≈ 1.88 µM) | 8 (≈ 15 µM) |
| Nc1nc(/C(=N/OC2(C(=O)O)CC2)C(=O)N[C@@H]2C(=O)N(S(=O)(=O)O)[C@@H]2CN2CCOC2=O)cs1 [Example 22, 1-(((Z)-(1-(2-aminothiazol-4-yl)-2-oxo-2-(((3S,4R)-2-oxo-4-((2-oxooxazolidin-3-yl)methyl)-1-sulfoazetidin-3-yl)amino)ethylidene)amino)oxy)cyclopropanecarboxylic acid] | ≤ 0.06 | 0.125 (≈ 0.241 µM) | 0.5 (≈ 0.964 µM) | 0.25 (≈ 0.482 µM) | 0.125 (≈ 0.241 µM) |
| N=C(N)NCc1cn(C[C@@H]2[C@H](NC(=O)/C(=N\OC3(C(=O)O)CC3)c3csc(N)n3)C(=O)N2S(=O)(=O)O)nn1 [Example 28, 1-(((Z)-(1-(2-aminothiazol-4-yl)-2-(((2R,3S)-2-((4-(guanidinomethyl)-1H-1,2,3-triazol-1-yl)methyl)-4-oxo-1-sulfoazetidin-3-yl)amino)-2-oxoethylidene)amino)oxy)-cyclopropanecarboxylic acid] | ≤ 0.06 | ≤ 0.06 | 0.5 (≈ 0.875 µM) | – | – |
| N=C(NC1CCNCC1)c1ccc(OC[C@H](O/N=C(\C(=O)N[C@@H]2C(=O)N(S(=O)(=O)O)[C@@H]2Cn2cncn2)c2csc(N)n2)C(=O)O)cc1 [Example 31, (S)-2-(((Z)-(2-(((2R,3S)-2-((1H-1,2,4-triazol-1-yl)methyl)-4-oxo-1-sulfoazetidin-3-yl)amino)-1-(2-aminothiazol-4-yl)-2-oxoethylidene)amino)oxy)-3-(4-(N-(piperidin-4-yl)carbamimidoyl)-phenoxy)propanoic acid] | 0.125 (≈ 0.177 µM) | 0.25 (≈ 0.354 µM) | 0.5 (≈ 0.708 µM) | 0.25 (≈ 0.354 µM) | 0.25 (≈ 0.354 µM) |
| NC(=O)OC[C@@H]1[C@H](NC(=O)/C(=N\OCC(=O)O)c2csc(N)n2)C(=O)N1S(=O)(=O)O [compound 2, reference compound] | 0.125 (≈ 0.268 µM) | 1 (≈ 2.14 µM) | > 32 | – | – |
| CC1(C)[C@H](NC(=O)/C(=N\OCc2cc(=O)c(O)cn2O)c2csc(N)n2)C(=O)N1OS(=O)(=O)O [compound 3, reference compound] | 0.25 (≈ 0.482 µM) | 0.5 (≈ 0.964 µM) | > 32 | – | – |
| CC1(C)[C@H](NC(=O)/C(=N\O[C@@H](COc2ccc(C(=N)NC3CCNCC3)cc2)C(=O)O)c2csc(N)n2)C(=O)N1OS(=O)(=O)O [compound 4, reference compound] | ≤ 0.06 | 0.25 (≈ 0.374 µM) | 32 (≈ 47.9 µM) | – | – |
